Legend:
Assay type in all cases: binding
TEAD2 [1] = target: T1, TEAD2 (Homo sapiens, UniProt Q15562); test: TEAD lipid assay (Lipid FP, Bodipy-C16 probe displacement); conditions: fluorescence polarization, His-tagged TEAD, 60 minutes incubation
Protocol: (§1) A TEAD lipid assay was done according to the following method. His-tagged TEAD proteins were pre-incubated with a Bodipy-C16 FP probe (Life Technologies Cat #D3821) for 30 minutes at room temperature to pre-form TEAD-probe complex. […] Duplicate 10 point dose response curves were generated for each test compound. The potency of compounds as TEAD lipid pocket binders was determined by IC50 value generated using a non-linear 4 parameter curve fit.

TEAD3 [2] = target: T2, TEAD3 (Homo sapiens, UniProt Q99594); test: as above; conditions: fluorescence polarization, His-tagged TEAD, 60 minutes incubation
T2 sequence (Q99594 whole entry, species assumed): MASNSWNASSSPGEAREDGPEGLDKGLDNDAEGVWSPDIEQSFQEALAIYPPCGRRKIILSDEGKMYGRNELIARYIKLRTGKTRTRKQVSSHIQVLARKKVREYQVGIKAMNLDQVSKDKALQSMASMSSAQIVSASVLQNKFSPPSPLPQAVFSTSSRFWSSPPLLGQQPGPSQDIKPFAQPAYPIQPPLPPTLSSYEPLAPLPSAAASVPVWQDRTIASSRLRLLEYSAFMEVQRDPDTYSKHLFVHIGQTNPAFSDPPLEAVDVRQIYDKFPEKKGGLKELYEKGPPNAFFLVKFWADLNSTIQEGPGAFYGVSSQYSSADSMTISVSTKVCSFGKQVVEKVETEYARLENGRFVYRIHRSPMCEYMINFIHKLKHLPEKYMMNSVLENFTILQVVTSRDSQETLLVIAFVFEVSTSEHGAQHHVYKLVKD
Protocol: as §1

TEAD1 = TEAD1 (Homo sapiens, UniProt P28347); test: Lipid HTRF TEAD1
Chain of TEAD1 (P28347 whole entry, species assumed): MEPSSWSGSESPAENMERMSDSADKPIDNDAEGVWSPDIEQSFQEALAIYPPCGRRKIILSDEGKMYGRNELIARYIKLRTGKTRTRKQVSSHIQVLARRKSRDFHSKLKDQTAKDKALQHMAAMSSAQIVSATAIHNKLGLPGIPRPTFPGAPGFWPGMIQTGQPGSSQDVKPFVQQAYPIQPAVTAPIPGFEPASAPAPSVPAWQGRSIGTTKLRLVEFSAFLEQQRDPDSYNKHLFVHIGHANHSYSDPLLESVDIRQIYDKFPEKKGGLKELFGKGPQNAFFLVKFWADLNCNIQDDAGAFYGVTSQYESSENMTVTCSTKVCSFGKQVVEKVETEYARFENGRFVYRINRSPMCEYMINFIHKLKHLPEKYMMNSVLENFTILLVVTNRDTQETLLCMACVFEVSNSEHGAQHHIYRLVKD

TEAD2 [3] = target: T1, TEAD2; test: Lipid HTRF TEAD2
TEAD3 [4] = target: T2, TEAD3; test: Lipid HTRF TEAD3
TEAD4 = TEAD4 (Homo sapiens, UniProt Q15561); test: Lipid HTRF TEAD4
Chain of TEAD4 (Q15561 whole entry, species assumed): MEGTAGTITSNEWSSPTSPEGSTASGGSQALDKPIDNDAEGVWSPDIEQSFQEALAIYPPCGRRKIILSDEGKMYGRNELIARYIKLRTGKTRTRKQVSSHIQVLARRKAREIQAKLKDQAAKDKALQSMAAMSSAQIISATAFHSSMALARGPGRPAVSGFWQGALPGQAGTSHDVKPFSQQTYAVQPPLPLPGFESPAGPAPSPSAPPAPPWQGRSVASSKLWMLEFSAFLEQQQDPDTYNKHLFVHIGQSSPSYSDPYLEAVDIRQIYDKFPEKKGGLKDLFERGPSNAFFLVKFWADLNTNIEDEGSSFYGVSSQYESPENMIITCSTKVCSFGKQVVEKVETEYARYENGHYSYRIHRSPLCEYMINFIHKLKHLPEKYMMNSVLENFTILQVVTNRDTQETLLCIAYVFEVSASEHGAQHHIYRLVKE

T1 sequence (Q15562 whole entry, species assumed): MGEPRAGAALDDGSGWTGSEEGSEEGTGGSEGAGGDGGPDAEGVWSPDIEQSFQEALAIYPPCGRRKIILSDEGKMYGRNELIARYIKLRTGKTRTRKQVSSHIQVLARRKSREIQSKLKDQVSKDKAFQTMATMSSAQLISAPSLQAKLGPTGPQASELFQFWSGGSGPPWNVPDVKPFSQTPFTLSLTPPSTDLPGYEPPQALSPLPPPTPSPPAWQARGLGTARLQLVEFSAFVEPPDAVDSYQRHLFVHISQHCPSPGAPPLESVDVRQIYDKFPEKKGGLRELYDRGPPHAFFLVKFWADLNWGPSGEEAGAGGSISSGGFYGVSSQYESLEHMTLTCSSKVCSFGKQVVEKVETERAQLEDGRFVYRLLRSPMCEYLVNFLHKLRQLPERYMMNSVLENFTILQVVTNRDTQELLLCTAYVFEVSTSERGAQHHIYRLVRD

IC50 (TEAD2 [1]) [nM]	IC50 (TEAD3 [2]) [nM]	IC50 (TEAD1) [nM]	IC50 (TEAD2 [3]) [nM]	IC50 (TEAD3 [4]) [nM]	IC50 (TEAD4) [nM]	Compound
530	780					CC[C@H](CO)NC(=O)c1cc(/C=C/[C@H]2CC[C@H](C(F)(F)F)CC2)c(OC)cn1 [Compound 42, (E)-N-(1-hydroxybutan-2-yl)-5-methoxy-4-(2-(4-(trifluoromethyl)cyclohexyl)vinyl) picolinamide]
1100	1600					COc1cnc(NS(C)(=O)=O)cc1/C=C/C1CCC(C(F)(F)F)CC1 (stereo not shown) [Compound 48, (E)-N-(5-methoxy-4-(2-(4-(trifluoromethyl)cyclohexyl)vinyl)pyridin-2-yl)methanesulfonamide]
		318	146	4000	224	CNC(=O)Cc1cccc(CNC(=O)c2cnc(OC)c(/C=C/C3CCC(F)(F)CC3)c2)c1 [Compound 54, (E)-5-(2-(4,4-difluorocyclohexyl)vinyl)-6-methoxy-N-(3-(2-(methylamino)-2-oxoethyl)benzyl)nicotinamide]
		198	89	230	73	CNC(=O)Cc1cccc(CNC(=O)c2cc(/C=C/C3CCC(F)(F)CC3)c(OC)cn2)c1 [Compound 55, (E)-4-(2-(4,4-Difluorocyclohexyl)vinyl)-5-methoxy-N-(3-(2-(methylamino)-2-oxoethyl)benzyl)picolinamide]
		708	79	15200	355	CNC(=O)Cc1cccc(CNC(=O)c2cnc(OC)c(/C=C/[C@H]3CC[C@@H](C(F)(F)F)CC3)c2)c1 [Compound 56A, 6-Methoxy-N-(3-(2-(methylamino)-2-oxoethyl)benzyl)-5-((E)-2-(cis-4-(trifluoromethyl)cyclohexyl)vinyl)nicotinamide]
		193	31	2090	39	CNC(=O)Cc1cccc(CNC(=O)c2cnc(OC)c(/C=C/[C@H]3CC[C@H](C(F)(F)F)CC3)c2)c1 [Compound 56B, 6-methoxy-N-(3-(2-(methylamino)-2-oxoethyl)benzyl)-5-((E)-2-(trans-4-(trifluoromethyl)cyclohexyl)vinyl) nicotinamide]
		389	46	867	131	CNC(=O)Cc1cccc(CNC(=O)c2cc(/C=C/[C@H]3CC[C@@H](C(F)(F)F)CC3)c(OC)cn2)c1 [Compound 57A, 5-Methoxy-N-(3-(2-(methylamino)-2-oxoethyl)benzyl)-4-((E)-2-(cis-4-(trifluoromethyl)cyclohexyl)vinyl) picolinamide]
		128	17	298	19	CNC(=O)Cc1cccc(CNC(=O)c2cc(/C=C/[C@H]3CC[C@H](C(F)(F)F)CC3)c(OC)cn2)c1 [Compound 57B, 5-methoxy-N-(3-(2-(methylamino)-2-oxoethyl)benzyl)-4-((E)-2-(trans-4-(trifluoromethyl)cyclohexyl)vinyl) picolinamide]

Second part, the compound before the results:

Compound	IC50 (TEAD2 [1]) [nM]	IC50 (TEAD3 [2]) [nM]	IC50 (TEAD1) [nM]	IC50 (TEAD2 [3]) [nM]	IC50 (TEAD3 [4]) [nM]	IC50 (TEAD4) [nM]
COc1nc(F)c(NS(C)(=O)=O)cc1/C=C/C1CCC(F)(F)CC1 [Compound 39, N-[5-[(E)-2-(4,4-difluorocyclohexyl)vinyl]-2-fluoro-6-methoxy-3-pyridyl]methanesulfonamide]	550	970				
COc1nc(F)c(NS(C)(=O)=O)cc1/C=C/CC1CCCC1 [Compound 40, N-[5-[(E)-3-cyclopentylprop-1-enyl]-2-fluoro-6-methoxy-3-pyridyl]methanesulfonamide]	640	650				
COc1cnc(C(=O)NC[C@H](O)CO)cc1/C=C/C1CC2(CC2)C1 [Compound 43, (E)-N-(2,3-dihydroxypropyl)-5-methoxy-4-(2-(spiro[2.3]hexan-5-yl)vinyl)picolinamide]	980	1700				
CC[C@H](CO)NC(=O)c1cc(/C=C/C2CC3(CC3)C2)c(OC)cn1 [Compound 44, (E)-N-(1-hydroxybutan-2-yl)-5-methoxy-4-(2-(spiro[2.3]hexan-5-yl)vinyl)picolinamide]	830	700				
COc1nnc(NS(C)(=O)=O)cc1/C=C/C1CCC(C(F)(F)F)CC1 (stereo not shown) [Compound 45, (E)-N-(6-methoxy-5-(2-(4-(trifluoromethyl)cyclohexyl)vinyl)pyridazin-3-yl)methanesulfonamide]	1600	1700				
CC[C@H](CO)NC(=O)c1cc(/C=C/[C@H]2CC[C@H](C(F)(F)F)CC2)c(OC)nn1 [Compound 46, (E)-N-(1-hydroxybutan-2-yl)-6-methoxy-5-(2-(4-(trifluoromethyl)cyclohexyl)vinyl) pyridazine-3-carboxamide]	1600	1600				
CC[C@H](CO)NC(=O)c1cc(/C=C/C2CC3(CC3)C2)c(OC)nn1 [Compound 47, (E)-N-(1-hydroxybutan-2-yl)-6-methoxy-5-(2-(spiro[2.3]hexan-5-yl)vinyl)pyridazine-3-carboxamide]	1800	860				
COc1ccc(NS(=O)(=O)C2CC2)cc1/C=C/c1ccc(Cl)cc1 [Compound 49, N-[3-[(E)-2-(4-chlorophenyl)vinyl]-4-methoxy-phenyl]cyclopropanesulfonamide]	750	1900				
COc1ncc(NS(=O)(=O)CC(C)(C)C#N)cc1/C=C/C1CCC(F)(F)CC1 [Compound 50, 2-cyano-N-[5-[(E)-2-(4,4-difluorocyclohexyl)vinyl]-6-methoxy-3-pyridyl]-2-methyl-propane-1-sulfonamide]	1300	1100				
CS(=O)(=O)Nc1cnc(C2CC2)c(/C=C/C2CCC(F)(F)CC2)c1 [Compound 52, N-[6-cyclopropyl-5-[(E)-2-(4,4-difluorocyclohexyl)vinyl]-3-pyridyl]methanesulfonamide]	1600	13000				
C=CS(=O)(=O)Nc1cnc(OC)c(/C=C/C2CCC(F)(F)CC2)c1 [Compound 58, N-[5-[(E)-2-(4,4-difluorocyclohexyl)vinyl]-6-methoxy-3-pyridyl]ethenesulfonamide]			34	10	34	8
